Experimental data: patent US5451518A, “Purified human ceramide-activated protein kinase” (Sloan-Kettering Institute for Cancer Research, priority 1992, dated 1995)
“Also recorded” adds a separate entry of the source.

Tests used:
[1] = tested on: proline-directed protein kinase activities other than ceramide-activated protein; assay: Cytosolic kinase activity toward EGFR peptide in EL-4 cells; type: cell-based, murine
[2] = tested on: sphingomyelin (EL-4 nuclei-free supernate); assay: Sphingomyelin levels in EL-4 cell-free system; type: biochemical, murine; conditions: IL-1β, n=10, p<0.005 vs. control
Procedure: (§1) Thereafter, supernates (300 μg incubation^-1 in 25 μl ) were added to a reaction mixture (total volume 250 μl ) as described in FIG. 14. For studies measuring lipid levels, incubations were stopped by extraction of lipids into an organic phase and resolved as described in FIGS. 12A, 12B and 13. For studies measuring kinase activity, incubations contained EGFR peptide and [^32 P]ATP, and phosphorylated peptide was quantified as described in FIG. 14. Background activity was subtracted from each point. Values (mean) represent data from two experiments for sphingomyelin performed in triplicate, three experiments for ceramide performed in triplicate, and five experiments for ceramide-activated protein kinase activity performed in duplicate.
(§2) Early kinetics of activation of a potential signaling system provide some support that the pathway might be involved in the signaling process. However, signal transduction pathways are highly regulated and often interrelated (70). […] To provide additional support for tight coupling of the sphingomyelin pathway to activation of the IL-1β receptor, studies were performed with subcellular fractions derived from EL-4 cells. […] These effects were quantitatively similar to those determined in the intact cells.

[3] = tested on: ceramide-activated protein kinase
Procedure: Homogenates were centrifuged at 500×g for 5 minutes to remove nuclei and at 200,000×g for 30 minutes to prepare microsomal membranes. Membranes were resuspended into homogenizing buffer (2.2 μg membrane protein μl^-1). For assay of kinase activity, the reaction mixture contained 20 μl of microsomal membrane, 40 μl EGFR peptide (4 mg ml^-1 in 25 mM Hepes, pH 7.4) and 100 μl buffer (50 mM HEPES, pH 7.4, 20 mM MgCl2) (40). Phosphorylation was initiated at 22° C. by addition of 40 μl [γ-^32 P] ATP (100 μM final concentration) and terminated at the indicated times by addition of 40 μl of 0.5M ATP in 90% formic acid. Phosphorylated peptide was eluted from a C18 Sep pak cartridge (Millipore), lyophilized, and resolved by C18 reverse phase HPLC using a linear gradient of acetonitrile. […] All assays were performed under conditions determined as linear for time and enzyme concentration. Enzyme activity was determined from the percent conversion of substrate to product and the specific radioactivity of [γ-^32 P] ATP. […] Values (mean ± range) represent duplicate determinations from two experiments.
Activity was measured by the transfer of ^32 P from the γ-position of ATP to EGFR peptide (AA 663-681 of the EGFR). The effect of IL-1β on kinase activity was determined using microsomal membranes derived from cells stimulated with IL-1β.

[4] = tested on: protein kinase C; assay: Protein kinase C activity by phosphorylation of lysine-rich histone in EL-4 cells; type: cell-based, murine; conditions: membrane and cytosolic fractions
[5] = tested on: ceramide (EL-4 nuclei-free supernate); assay: Ceramide levels in EL-4 cell-free system; type: biochemical, murine; conditions: IL-1β, n=6, p<0.005 vs. control
Procedure: as §1, §2

[6] = tested on: EL-4 cells; assay: Ceramide levels in intact EL-4 cells; type: cell-based, murine
Procedure: (§3) Time course (FIG. 12A) and dose response (FIG. 12B). Cells were grown to growth arrest (1-1.5×10^6 cells ml^-1) in DME/Ham's F12 medium (1:1, v/v) containing 10% horse serum and for 48 hours [^3 H]choline (1 μCi ml^-1). On the day of an experiment, cells were resuspended back into the same medium at 10×10^6 cells ml^-1 and stimulated with 40 ng ml^-1 IL-1β for the indicated times (FIG. 12A) or for 30 minutes with increasing concentrations of IL-1β (FIG. 12B). Human IL-1β may be obtained using methods well knownto those skilled in the art. Reactions were terminated with CHCl3 :CH3 OH:HCl (100:100:1) containing 10 mM EDTA (82). Lipids in the organic phase extract were dried under N2 and subjected to mild alkaline hydrolysis (0.1M methanolic KOH for 1 hour at 37° C.) to remove glycerophospholipids. Spingomyelin was resolved by thin-layer chromatography (TLC) using CHCl3 :CH3 OH:CH3 COOH:H2 O (60:30:8:5) as solvent, identified by iodine vapor staining, and quantified by liquid scintillation spectrometry. As previously reported, the use of [^3 H]choline as a measure of sphingomyelin content was validated by simultaneous phospholipid phosphorus measurements (62). Each value represents the mean ± SEM of triplicate determinations from four experiments in (FIG. 12A), and one representative of four similar studies performed in triplicate in (FIG. 12B).
Cells were stimulated as in FIGS. 12A and 12B with IL-1β (40 ng ml^-1) and ceramide contained within the organic phase extract quantified enzymatically using the E. coli diacylglycerol kinase reaction (57). Lipids were resolved by TLC using CHCl3 :CH3 OH:CH3 COOH (65/15/5) as solvent, autoradiographed and quantified by liquid scintillation spectrometry. Each value represents the mean ± SEM of triplicate determinations from 10 experiments.

[7] = tested on: EL-4 cells; assay: Phosphatidylcholine content in EL-4 cells; type: cell-based, murine; conditions: IL-1β
[8] = tested on: ceramide-activated protein kinase; assay: Ceramide-activated protein kinase activity in EL-4 cell-free system; type: biochemical, murine; conditions: IL-1β
Procedure: as §1, §2

[9] = tested on: EL-4 cells; assay: Sphingomyelin levels in intact EL-4 cells; type: cell-based, murine
Procedure: as §3
The murine thymoma EL-4 cell line is a well-defined IL-1 responsive cell line that expresses functional IL-1 receptors (61, 62). Upon stimulation with IL-1, these cells up-regulate the IL-2 receptor and secrete IL-2 (62). Initial studies were designed to investigate the effects of IL-1β on cellular sphingomyelin content. Cells, grown in Dulbecco's Modified Eagle's (DME)/Ham's F-12 medium containing 10% horse serum and [^3 H]choline (1 μCi ml^-1), were resuspended back into the same medium at 10×10^6 cells ml^-1 and stimulated with IL-1β. IL-1β is commercially available.

[10] = tested on: human natural killer-like cell line, YT; assay: Ceramide generation in YT cells; type: cell-based; conditions: preliminary studies
[11] = tested on: EL4 cells; conditions: 24 h

## IL-1β: Human IL-1β
[1]
  cytosolic kinase activity (in words): not enhanced
[2]
  reduction in sphingomyelin content (in words): rapid reduction in sphingomyelin content; also recorded: detected at i minute
[3]; 10 ng ml^-1, 2 minutes, from 5
  kinase activity after IL-1β: 11 pmol per minute per milligram (pmol min^-1 mg^-1)
[3]; IL-1β
  concentration for maximal effect, kinase activity: 0.01 µg/mL
  effective concentration, kinase activity: 0.03 ng/mL
  effective dose (ED50), kinase activity: ≈ 2 ng ml^-1
[3]; IL-1β 10 ng ml^-1
  time at which increase in kinase activity was detectable: 30 s
[3]; IL-1β 10 ng ml^-1, 2 minutes
  increase in kinase activity: 2.1 -fold of control
[3]; IL-1β 10 ng ml^-1, p<0.005
  time to maximal kinase activity: 2 min
[4]
  protein kinase C activity (in words): not enhanced in either membrane or cytosolic fractions
[5]
  increase in ceramide content (in words): quantitative increase in ceramide content; also recorded: detected at i minute
[6]; EL-4, maximally effective concentrations (n=5), SMase 1×10^-3 U ml^-1
  ceramide response (in words): elevation in ceramide levels
[6]; IL-1β, 2 minutes, from 360, p<0.005
  ceramide content: 403 pmol 10^6 cells^-1
[6]; IL-1β, 15 minutes, from 360
  maximum ceramide content: 450 pmol 10^6 cells^-1
[6]; IL-1β, n=4
  time at which increase in ceramide content was evident: ≤ 30 s
[7]
  phosphatidylcholine content: unchanged
[8]
  ceramide-activated protein kinase activity (in words): Ceramide-activated protein kinase activity also increased
[9]; 40 ng ml^-1, 30 minutes, baseline 800±14, mean ± SEM, p<0.005
  sphingomyelin content after IL-1β: 648±16 pmol 10^6 cells^-1
[9]; IL-1β 40 ng ml^-1
  time at which sphingomyelin reduction was detectable: ≤ 2 min
[9]; IL-1β, 30 minutes
  concentration for maximal effect, sphingomyelin: 10 ng/mL
  effective concentration, sphingomyelin: 0.01 ng/mL
  effective dose (ED50), sphingomyelin hydrolysis: ≈ 2 ng ml^-1
[9]; intact EL-4
  effect on sphingomyelin (in words): rapid reduction in sphingomyelin
[10]
  generation of ceramide in YT cells: induces rapid generation of ceramide
[11]
  IL-2 secretion in combination with TPA (in words): stimulated secretion maximally
[11]; Table I, TPA 20 ng ml^-1, mean ± range, nd = not detectable
  IL-2 secretion, ±TPA: 261 ± 2
